Measurements as given in US20200030355A1, “COMBINATION THERAPY FOR TREATING CANCER” (Epizyme, Inc., priority 2014, published 2020).

Key:
OCI-AML-4 (MLL-ENL) = experiment: EPZ-5676 7-day pre-treatment, then second compound 72 hours, growth inhibition GI100 shift; primary screen and retest (Example 7); type: cell-based; settings: 300 nM EPZ-5676 7-day pre-treatment, second compound 72 hours; for Combination with EPZ-5676, OCI-AML-4 (MLL-ENL) Retest: Cell Titer Glo
Procedure: (§1) Cells were then equilibrated in incubators for 24 hours before treatment with a second compound. Treated assay plates were incubated with a second compound for 72 hours. After this time, plates were developed for endpoint analysis using ATPLite to measure ATP content, which is used as an indicator of cell viability.
(§2) Cells were then treated with a second compound for 72 hours. After this time, plates were developed for endpoint analysis using Cell Titer Glo to measure ATP content, which is used as an indicator of cell viability.
(§3) “N/D” means the GI100 of the second compound could not be determined for both conditions and “-” means not tested.
(§4) Growth Inhibition (GI) as a measure of cell viability: The cell viability of vehicle was measured at the time of dosing the second agent (T0) and after seventy-two hours (T72). […] A GI 200% represents complete death of all cells in the culture well. Compounds reaching an activity plateau of GI 200% are considered cytotoxic. GI is calculated by applying the following test and equation: […]
(§5) where T is the signal measure for a test article, V is the vehicle-treated control measure, and V0 is the vehicle control measure at time zero.

SKM-1 (non-MLLr) = experiment: as above; type: cell-based, human; settings: 300 nM EPZ-5676 7-day pre-treatment; for Combination with EPZ-5676, SKM-1 (non-MLLr) Retest: Cell Titer Glo
Procedure: as §1, §2, §3, §4, §5

MOLM-13 (MLL-AF9) = experiment: as above; type: cell-based, human; settings: second compound 72 hours; for Combination with EPZ-5676, MOLM-13 (MLL-AF9) Retest: 150 nM EPZ-5676 7-day pre-treatment, Cell Titer Glo; for Combination with EPZ-5676, MOLM-13 (MLL-AF9) Primary screen: 300 nM EPZ-5676 7-day pre-treatment, ATPLite
Procedure: as §1, §2, §3, §4, §5

MOLM-13 cells = experiment: EPZ-5676 300 nM 7-day pre-treatment, then second compound 72 hours, ATPLite, IC50 shift (Example 6); type: cell-based, human; settings: 300 nM EPZ-5676 or DMSO 7-day pre-treatment, then 2nd compound 72 hours, Synergy = IC50 of 2nd compound decreased by 2-fold or more vs DMSO control
Procedure: as §1
“N/D” means that IC50 of the second compound could not be determined for both conditions.

Structure (SMILES)	Combination with EPZ-5676, OCI-AML-4 (MLL-ENL) Retest (OCI-AML-4 (MLL-ENL))	Combination with EPZ-5676, SKM-1 (non-MLLr) Retest (SKM-1 (non-MLLr))	Combination with EPZ-5676, MOLM-13 (MLL-AF9) Retest (MOLM-13 (MLL-AF9))	Combination with EPZ-5676, OCI-AML-4 (MLL-ENL) Primary screen (OCI-AML-4 (MLL-ENL); ATPLite)	MOLM-13 (summary of combination study: EPZ-5676 + 2nd compound) (MOLM-13 cells)	Combination with EPZ-5676, SKM-1 (non-MLLr) Primary screen (SKM-1 (non-MLLr); ATPLite)	Combination with EPZ-5676, MOLM-13 (MLL-AF9) Primary screen (MOLM-13 (MLL-AF9))
Cn1cnc2c(F)c(Nc3ccc(Br)cc3F)c(C(=O)NOCCO)cc21 [Binimetinib (MEK-162), Binimetinib]	Synergy (considered synergistic if the GI100 (Growth inhibition 100) value of the second compound decreased by 2-fold or more when EPZ-5676 was added as compared to the DMSO control)	Synergy (considered synergistic if the GI100 (Growth inhibition 100) value of the second compound decreased by 2-fold or more when EPZ-5676 was added as compared to the DMSO control)	Synergy (considered synergistic if the GI100 (Growth inhibition 100) value of the second compound decreased by 2-fold or more when EPZ-5676 was added as compared to the DMSO control)				
Cn1cnc2c(F)c(Nc3ccc(Br)cc3Cl)c(C(=O)NOCCO)cc21 [Selumetinib (AZD6244), Selumetinib]	Synergy (considered synergistic if the GI100 (Growth inhibition 100) value of the second compound decreased by 2-fold or more when EPZ-5676 was added as compared to the DMSO control)	Synergy (considered synergistic if the GI100 (Growth inhibition 100) value of the second compound decreased by 2-fold or more when EPZ-5676 was added as compared to the DMSO control)	Synergy (considered synergistic if the GI100 (Growth inhibition 100) value of the second compound decreased by 2-fold or more when EPZ-5676 was added as compared to the DMSO control)	Synergy (considered synergistic if the GI100 (Growth inhibition 100) value of the second compound decreased by 2-fold or more when EPZ-5676 was added as compared to the DMSO control)	Synergy (considered synergistic if the IC50 value of the second compound decreased by 2-fold or more when EPZ-5676 was added as compared to the DMSO control)	Synergy (considered synergistic if the GI100 (Growth inhibition 100) value of the second compound decreased by 2-fold or more when EPZ-5676 was added as compared to the DMSO control)	Synergy (considered synergistic if the GI100 (Growth inhibition 100) value of the second compound decreased by 2-fold or more when EPZ-5676 was added as compared to the DMSO control)
CNC(=O)c1cc(Oc2ccc(NC(=O)Nc3ccc(Cl)c(C(F)(F)F)c3)cc2)ccn1 [Sorafenib]			Synergy (considered synergistic if the GI100 (Growth inhibition 100) value of the second compound decreased by 2-fold or more when EPZ-5676 was added as compared to the DMSO control)		Synergy (considered synergistic if the IC50 value of the second compound decreased by 2-fold or more when EPZ-5676 was added as compared to the DMSO control)		Synergy (considered synergistic if the GI100 (Growth inhibition 100) value of the second compound decreased by 2-fold or more when EPZ-5676 was added as compared to the DMSO control)
Cn1nccc1Nc1nccc(-c2ccn([C@H](CO)c3ccc(Cl)c(F)c3)c(=O)c2)n1 [GDC0994]	Synergy (considered synergistic if the GI100 (Growth inhibition 100) value of the second compound decreased by 2-fold or more when EPZ-5676 was added as compared to the DMSO control)	Synergy (considered synergistic if the GI100 (Growth inhibition 100) value of the second compound decreased by 2-fold or more when EPZ-5676 was added as compared to the DMSO control)					
CC(C)Nc1cc(-c2c[nH]c(C(=O)N[C@H](CO)c3cccc(Cl)c3)c2)c(Cl)cn1 [Ulixertinib]	Synergy (considered synergistic if the GI100 (Growth inhibition 100) value of the second compound decreased by 2-fold or more when EPZ-5676 was added as compared to the DMSO control)	Synergy (considered synergistic if the GI100 (Growth inhibition 100) value of the second compound decreased by 2-fold or more when EPZ-5676 was added as compared to the DMSO control)	Synergy (considered synergistic if the GI100 (Growth inhibition 100) value of the second compound decreased by 2-fold or more when EPZ-5676 was added as compared to the DMSO control)				
